Laboratory results from patent US8222261B2, “Chemical compounds” (GlaxoSmithKline, LLC, priority 2006, dated 2012).

How the values were obtained:
[1] = system: transgenic wild-type (WT) and GPR119 knock-out (KO) mice; test: Effect on circulating GLP-1 and GIP in wild-type and GPR119 knock-out mice; format: in vivo; settings: 30 mg/kg oral gavage; for incretin hormone levels (total GLP-1 and GIP): 60 min after dosing
Procedure: 17 weeks old male transgenic wild-type (WT) and GPR119 knock-out (KO) mice (Charles River Laboratories, USA) were fasted overnight then randomly distributed into two treatment groups for each genotype with n=8 and n=10 animals per treatment group for KO and WT mice respectively. Animals received either vehicle (0.5% HPMC/0.1% Tween80) or a GPR119 agonist (Example 1) at a dose of 30 mg/kg (10 mL/kg), administered by oral gavage. Sixty minutes after the oral gavage the mice were anesthetized using isofluorane and a blood sample was collected by cardiac puncture, before sacrificing the animal by cervical dislocation. Blood samples were treated as described above for determination of incretin hormone levels. Plasma glucose levels were measured using an Olympus AU640 analyzer (Olympus America Inc, Melville, N.Y.), and insulin levels an electrochemoluminescence assay (Bioveris, Gaithersburg Md.).
Data is represented as box plots summarizing the distribution of data for each treatment group, as described above. Horizontal lines represent the mean data. FIG. 3 and FIG. 4 show total GLP-1 and GIP levels measured in circulation following administration of vehicle or 30 mg/kg GPR119 agonist (Example 1) in WT and KO mice.

Male Sprague-Dawley rats [2] = test: Effect on circulating GLP-1 and GIP in vivo in rats; settings: 10 mg/kg oral
Procedure: On the day before the experiment, food was removed in the afternoon and the following morning animals were randomly assigned to two treatment groups, vehicle (n=7) or a GPR119 agonist (Example 1; n=8). Blood samples were collected prior to, and 90 minutes following oral administration of either vehicle (0.5% HPMC/0.1% Tween80) or 10 mg/kg of Example 1. Blood samples were treated as described above and analyzed for incretin hormones, plasma glucose and insulin. The rats were sacrificed at the end of the study by an overdose of Nembutal® pentobarbital.
Data is represented as line graphs of the measurements prior to gavage (Pre) and 90 min following administration of vehicle or GPR119 agonist (Post) analyzed for total GLP-1 (FIG. 7), total GIP (FIG. 8), plasma glucose (FIG. 9) and insulin (FIG. 10) for individual animals.

male C57BL/6 mice = test: Oral glucose tolerance in normal mice; format: in vivo; settings: fasted mice, Example 1 30 mg/kg, DPPIV inhibitor 10 mg/kg oral, 2 g/kg dextrose oral 1 h after dosing
Procedure: Nine weeks old male C57BL/6 mice (Taconic farms, USA) were fasted overnight and randomly assigned to three different treatment groups (n=9-10 per treatment arm) to receive vehicle (0.5% HPMC/0.1% Tween80), a GPR119 agonist (Example 1, 30 mg/kg) or a positive control (10 mg/kg), specifically a DPPIV inhibitor known to improve glucose tolerance in vivo by preventing degradation of the GLP-1 and GIP. Vehicle or compounds were delivered by oral gavage at a volume of 10 mL/kg, and the tip of tail was nicked using a scalpel to allow whole blood glucose measurements. One hour after administration of vehicle or test compounds, 2 g/kg of dextrose was administered by oral gavage. Whole blood glucose levels were determined from the abrasion at the tip of the tail at time points as indicated in FIG. 16 using a Glucometer (Freestyle, Therasense). At the end of the study the mice were sacrificed by cervical dislocation.

Male Sprague-Dawley rats [3] = test: Oral glucose tolerance in rats; format: in vivo; settings: fasted rats, 10 mg/kg oral
Procedure: Eight weeks old male Sprague-Dawley rats had catheters surgically implanted into the jugular […] vein and allowed to recover for one week. Food was removed in the afternoon the day before the experiment to fast animals overnight. The following morning animals were randomly assigned to treatment groups to receive vehicle (n=7) (0.5% HPMC/0.1% Tween80), a GPR119 agonist (Example 1, 10 mg/kg) or a positive control (10 mg/kg), namely a DPPIV inhibitor as described above. Vehicle and compounds were delivered by oral gavage at a volume of […]. Two and a half hours after administration of vehicle or GPR119 agonist and one hour administration of DPPIV inhibitor, 2 g/kg dextrose was administered orally. […] The tubes were immediately centrifuged, plasma collected for subsequent measurement of glucose and hormone levels and stored at −80° C. Plasma glucose, insulin and total GLP-1 levels were measured as described above.
The data is represents as mean values±SEM from all animals within each treatment group.

Male Sprague Dawley rats = test: Whole body insulin sensitivity, euglycemic hyperinsulinemic clamp in rats; format: in vivo; settings: 10 mg/kg oral
Procedure: Male Sprague Dawley rats, weighing at 300-350 gram, had catheters surgically implanted into the jugular and femoral veins and allowed to recover for one week following the surgery. On the day before the experiment, food was removed in the afternoon to fast the animals overnight. The following morning animals were randomly assigned to two treatment groups, vehicle (n=7) and or 10 mg/kg of a GPR119 agonist (Example 1, n=9). Blood samples were collected from the jugular vein for baseline glucose measurements prior to oral administration of the respective treatment. The euglycemic hyperinsulinemic clamp was initiated approximately 90 minutes following oral administration of the respective treatments, by starting the constant insulin infusion at a rate of 1 mU/kg/min human insulin (Humulin, Eli Lilly and Company, Indianapolis, Id.) into the femoral vein of conscious animals. Whole blood glucose levels were measured every 10 minutes throughout the clamp. As the plasma glucose levels began to fall exogenous glucose infusion was started at a variable rate adjusted to achieve a stable plasma glucose level of 90-100 mg/dl. The glucose infusion rate required to maintain euglycemia was recorded throughout the experiment for each animal, and represents a measure of insulin sensitivity. Plasma glucose and human insulin levels were measured at the end of the clamp (at 180 min) as described above. At the end of the study the rats were sacrificed by an overdose of Nembutal.
Data is represented as box plots summarizing the distribution of data for each treatment group, as described above. Horizontal lines represent the mean data. […] The data is represented as mean GIR±SEM. At steady state, 180 minutes after starting the clamp, the glucose infusion rate required to maintain euglycemia in Example 1 treated animals were three times that of vehicle treated animals.

[4] = fasted rats, 90 min after dosing vs pre-dose
[5] = rats, 90 min, vs vehicle or baseline
[6] = rats, end of clamp (180 min), between treatment groups

Compound: CC(C)OC(=O)N1CCC(Oc2ncnc3c2CCN3c2ccc(S(C)(=O)=O)cc2F)CC1 [Example 1, 1-Methylethyl 4-({7-[2-fluoro-4-(methylsulfonyl)phenyl]-6,7-dihydro-5H-pyrrolo[2,3-d]pyrimidin-4-yl}oxy)-1-piperidinecarboxylate]
- incretin hormone levels (total GLP-1 and GIP) ([1]; GPR119 knock out mice): without effect
- fasting glucose levels ([1]; WT and KO mice, 60 min): not affected
- fasting insulin levels ([1]; WT and KO mice, 60 min): not affected
- incretin hormone levels (total GLP-1 and GIP) ([1]; WT mice): increase
- circulating levels of total GIP (Male Sprague-Dawley rats [2]; [4]): increases
- circulating levels of total GLP-1 (Male Sprague-Dawley rats [2]; [4]): increases
- fasting glucose (Male Sprague-Dawley rats [2]; [5]): not significantly affected
- fasting insulin (Male Sprague-Dawley rats [2]; [5]): not significantly affected
- glucose disposal during the oral glucose tolerance test (whole blood glucose) (male C57BL/6 mice): significantly enhanced
- reduction of total glucose area under the curve (AUC) (Male Sprague-Dawley rats [3]; Example 1 2.5 h and DPPIV inhibitor 1 h before 2 g/kg dextrose oral): 38%
- glucose excursion during the 120 minutes oral glucose tolerance test (Male Sprague-Dawley rats [3]; Example 1 2.5 h and DPPIV inhibitor 1 h before 2 g/kg dextrose oral, vs vehicle): significantly decreased
- baseline total GLP-1 (Male Sprague-Dawley rats [3]; before the oral glucose load, compared to vehicle and DPPIV treated animals): significantly increased
- Insulin AUC (Male Sprague-Dawley rats [3]; oral glucose tolerance test, between treatment groups): not significantly different
- total GLP-1 AUC (Male Sprague-Dawley rats [3]; oral glucose tolerance test, compared to vehicle and DPPIV treated animals): significantly increased
- whole body insulin sensitivity (Male Sprague Dawley rats; normal rats, euglycemic hyperinsulinemic clamp): enhances
- euglycemia (plasma glucose at the end of the clamp) (Male Sprague Dawley rats; [6]): no significant difference
- steady state insulin exposure (Male Sprague Dawley rats; [6]): no significant difference
- glucose infusion rate required to maintain euglycemia, relative to vehicle (Male Sprague Dawley rats; rats, steady state 180 minutes after starting the clamp, insulin 1 mU/kg/min): three times
